Measurements taken from US6905861B2, “D-aminoacylases, method for producing the same, and method for producing D-amino acids using the same” (Daicel Chemical Industries, Ltd., priority 1998, dated 2005).
Each block holds one compound with its values, some of them ahead of it.

Columns and labels:
D-aminoacylase [1] = assay: Effects of various metal salts and reagents on residual enzyme activity; assay type: biochemical, Hypomyces mycophilus IFO 6785; conditions: for Relative activity (%): pH 9.5; for effect on the enzyme (in words): summary of Tables 6 and 7
[2] = system: D-aminoacylase (crude enzyme) of Menisporopsis novaezelandiae IFO 9179; assay: Crude enzyme activity for each N-Ac-D-amino acid substrate; assay type: biochemical; conditions: Menisporopsis novaezelandiae IFO 9179 crude enzyme; 20 mM substrate, 1 mM CoCl2, 50 mM phosphate buffer pH 7.0
Method: (§1) Auricularia auriculajudae IFO 5949, Pythium aphanidermaatum IFO 7030, and Menisporopsis novaezelandiae IFO 9179 were each inoculated into sterilized media (100 ml each) (Czapek Dox Broth for IFO 5949, YM1 medium for IFO 7030, and POTATO DEXTROSE BROTH for IFO 9179) in 500-ml Erlenmeyer flasks. The fungi were cultured on a rotary shaker at 210 rpm at 24° C. for 7 days and collected by centrifugation using a […] centrifuge with a RPR10-2 rotor at 8,000 rpm (12,500×g) for 20 min. […] Disrupted cells thus obtained were centrifuged using a […] centrifuge with a RPR20-2 rotor at 17,500 rpm (38,000×g) for 30 min at 4° C. to obtain the supernatant as the crude enzyme. […] Figures in the table denote the amount (mM) of D-amino acids produced from the corresponding N-acetyl-D-amino acids. The D-aminoacylase activity was detected in all the strains tested, producing D-amino acid from the corresponding N-acetyl-D-amino acid.

[3] = system: D-aminoacylase (crude enzyme) of Auricularia auriculajudae IFO 5949; assay: as above; assay type: biochemical; conditions: Auricularia auriculajudae IFO 5949 crude enzyme; 20 mM substrate, 1 mM CoCl2, 50 mM phosphate buffer pH 7.0
Method: as §1

D-aminoacylase [4] = assay: Substrate specificity of purified D-aminoacylase (TNBS method); assay type: biochemical, Hypomyces mycophilus IFO 6785; conditions: for percentage of the specific activity compared with that for N-acetyl-D-methionine taken as 100%, D-enantiomer / percentage of the specific activity compared with that for N-acetyl-D-methionine taken as 100%, L-enantiomer: 20 mM substrate, 50 mM Tris-HCl pH 7.5, 30° C., 20 min; for activity of the enzyme for the substrate (in words): summary of Table 5
Method: The enzyme activity was assayed by determining the amount of amino acid produced using the TNBS method and the HPLC method. In the TMBS method, 100 mM Na2B4O7 (0.5 ml) was added to a sample solution containing amino acid (0.5 ml), 20 μl of 110 mM TNBS (trinitrobenzenesulfonic acid) was then added, and the resulting mixture was quickly stirred. After 5 min, 100 mM NaH2PO4 containing 1.5 mM Na2SO3 (2 ml) was added to the reaction mixture to terminate the color reaction, and the absorbance at 420 nm was measured. HPLC was performed by subjecting a sample solution containing amino acid to high-performance liquid chromatography using an ODS column (column, Wakosil II 5C18 (4.6 dia.×250 mm) (Wako Pure Chemical); eluent, CH3CN/50 mM KH2PO4. H3PO4 (pH 2.5)=2:8; detection, A280 nm; and flow rate, 1.0 ml/min). The retention times were 3.5 min for D-tryptophan and 9.8 min for N-acetyl-D-tryptophan. Using D-tryptophan as the assay standard, one unit (or U) of the enzyme was defined as the amount of the enzyme required to produce 1 μmol of D-tryptophan at 30° C. for 1 min.
Substrate specificity of the enzyme was expressed as the percentage of the specific activity compared with that for N-acetyl-D-methionine taken as 100%. N-chloroacetyl-D-phenylalanine, N-acetyl-D-valine, N-acetyl-D-phenylalanine, N-acetyl-D-tryptophan, N-acetyl-D-leucine, N-acetyl-L-valine, N-acetyl-L-phenylalanine, N-acetyl-L-tryptophan, and N-acetyl-L-leucine substrates were used for the comparison. The enzyme reaction was performed in 50 mM Tris-HCl (pH 7.5) containing 1 µl of the enzyme solution and 20 mM of each substrate (total volume 1.0 ml) at 30° C. for 20 min, and terminated by adding 0.5 ml of a TCA reaction terminating solution according to Tsai et al. (consisting of 110 mM trichloroacetic acid, 220 mM sodium acetate, and 330 mM acetic acid). The enzyme activity was assayed by the TNBS method as described in Example 4(2).

[5] = system: Fusarium solani IFO 9975 strain; assay: D-amino acid production from N-acetyl-D-amino acid by washed fungal cells; assay type: cell-based; conditions: Fusarium solani IFO 9975 cells; 0.1% substrate, Tris-HCl pH 7.5, 30° C., 24 hours
Method: (§2) A platinum loopful of Hypomyces aurantius IFO 6847 strain, Hypomyces broomeanus IFO 9164 strain, Hypomyces rosellus IFO 6911 strain, Hypomyces chrysospermus IFO 6817 strain, Hypomyces sepulcralis IFO 9102 strain, Hypomyces subiculosus IFO 6892 strain, Hypomyces mycophilus ATCC 76474 or IFO 6785 strain, or Fusarium solani IFO 9974 or IFO 9975 strain was inoculated into 25 ml of YM medium (containing 0.3% yeast extract, 0.3% malt extract, 0.5% peptone, and 2.0% glucose, pH 6.0) in a 500-ml shouldered flask. The fungi were shake-cultured at 24° C. for 3 days. After culturing, a 5-ml aliquot of the culture medium was centrifuged in a refrigerated centrifuge to collect the fungal cells. The cells were washed with physiological saline solution (5 ml) and collected by centrifugation again. A reaction solution (containing 0.1% N-acetyl-D-amino acid shown in Table 1 below in Tris-HCl buffer, pH 7.5) was then added to the cells thus collected. The mixture was incubated in a 5-ml test tube with shaking at 30° C. for 24 hours.
(§3) D-Amino acid thus produced was determined by high-performance liquid chromatography (column, CROWNPAK CR (Daicel Chemical); column temperature, 26° C.; cooled in ice for only valine; mobile phase, HClO4 aqueous solution, pH 2.0; flow rate, 1 ml/min; and detection, 200 nm).

[6] = system: Hypomyces broomeanus IFO 9164 strain; assay: as above; assay type: cell-based; conditions: Hypomyces broomeanus IFO 9164 cells; 0.1% substrate, Tris-HCl pH 7.5, 30° C., 24 hours
Method: as §2, §3

[7] = system: Hypomyces mycophilus ATCC 76474; assay: as above; assay type: cell-based; conditions: Hypomyces mycophilus ATCC 76474 cells; 0.1% substrate, Tris-HCl pH 7.5, 30° C., 24 hours
Method: as §2, §3

[8] = system: Hypomyces chrysospermus IFO 6817 strain; assay: as above; assay type: cell-based; conditions: Hypomyces chrysospermus IFO 6817 cells; 0.1% substrate, Tris-HCl pH 7.5, 30° C., 24 hours
Method: as §2, §3

[9] = system: Hypomyces aurantius IFO 6847 strain; assay: as above; assay type: cell-based; conditions: Hypomyces aurantius IFO 6847 cells; 0.1% substrate, Tris-HCl pH 7.5, 30° C., 24 hours
Method: as §2, §3

[10] = system: Hypomyces subiculosus IFO 6892 strain; assay: as above; assay type: cell-based; conditions: Hypomyces subiculosus IFO 6892 cells; 0.1% substrate, Tris-HCl pH 7.5, 30° C., 24 hours
Method: as §2, §3

Fusarium solani IFO 9974 = assay: as above; assay type: cell-based; conditions: Fusarium solani IFO 9974 cells; 0.1% substrate, Tris-HCl pH 7.5, 30° C., 24 hours
Method: as §2, §3

[11] = system: Hypomyces sepulcralis IFO 9102 strain; assay: as above; assay type: cell-based; conditions: Hypomyces sepulcralis IFO 9102 cells; 0.1% substrate, Tris-HCl pH 7.5, 30° C., 24 hours
Method: as §2, §3

[12] = system: Hypomyces mycophilus IFO 6785 strain; assay: as above; assay type: cell-based; conditions: Hypomyces mycophilus IFO 6785 cells; 0.1% substrate, Tris-HCl pH 7.5, 30° C., 24 hours
Method: as §2, §3

[13] = system: Hypomyces rosellus IFO 6911 strain; assay: as above; assay type: cell-based; conditions: Hypomyces rosellus IFO 6911 cells; 0.1% substrate, Tris-HCl pH 7.5, 30° C., 24 hours
Method: as §2, §3

[14] = metal ion 1 mM, kept at 40° C. for 30 min, residual activity, no addition = 100
[15] = compound 1 mM, kept at 40° C. for 30 min, residual activity, no addition = 100

Compound: [Ca+2].[Cl-].[Cl-] [CaCl2]
Relative activity (%) (D-aminoacylase [1]; [14]): 104%

Compound: [Cl-].[Cl-].[Co+2] [CoCl2]
Relative activity (%) (D-aminoacylase [1]): 63.1%

Compound: [Co+2] [Co^2+]
effect on the enzyme (in words) (D-aminoacylase [1]): inhibited

Relative activity (%) (D-aminoacylase [1]; [15]): 20.4%
Compound: O=S(=O)([O-])[O-].[Cu+2] [CuSO4]

Compound: [Cu+2] [Cu^2+]
effect on the enzyme (in words) (D-aminoacylase [1]): inhibited

Relative activity (%) (D-aminoacylase [1]; [15]): 96.0%
effect on the enzyme (in words) (D-aminoacylase [1]): not being inhibited
Compound: O=C(O)CN(CCN(CC(=O)O)CC(=O)O)CC(=O)O [EDTA]

Relative activity (%) (D-aminoacylase [1]; [15]): 90.9%
Compound: O=C(O)CN(CCOCCOCCN(CC(=O)O)CC(=O)O)CC(=O)O [EGTA]

Compound: [Cl][Hg][Cl] [HgCl2]
Relative activity (%) (D-aminoacylase [1]): 13.4%

Compound: [Hg+2] [Hg^2+]
effect on the enzyme (in words) (D-aminoacylase [1]): inhibited

Compound: NO [Hydroxylamine]
Relative activity (%) (D-aminoacylase [1]; [15]): 96.2%

Compound: NC(=O)CI [Iodoacetamide]
Relative activity (%) (D-aminoacylase [1]): 185%
effect on the enzyme (in words) (D-aminoacylase [1]): activated

Compound: [Cl-].[K+] [KCl]
Relative activity (%) (D-aminoacylase [1]; [14]): 102%

Compound: [Cl-].[Cl-].[Mg+2] [MgCl2]
Relative activity (%) (D-aminoacylase [1]): 98.0%

Compound: [Cl][Mn][Cl] [MnCl2]
Relative activity (%) (D-aminoacylase [1]; [14]): 100%

amount of D-amino acids produced from the corresponding N-acetyl-D-amino acids [2]: 0.66 mM
amount of D-amino acids produced from the corresponding N-acetyl-D-amino acids [3]: 1.10 mM
Compound: CC(=O)N[C@H](CC(=O)O)C(=O)O [N-Acetyl-D-aspartic acid]

percentage of the specific activity compared with that for N-acetyl-D-methionine taken as 100%, D-enantiomer (D-aminoacylase [4]): 0%
Compound: CC(=O)N[C@H](CC(N)=O)C(=O)O [N-acetyl-D-asparagine]

percentage of the specific activity compared with that for N-acetyl-D-methionine taken as 100%, D-enantiomer (D-aminoacylase [4]): 0%
Compound: CC[C@@H](C)[C@@H](NC(C)=O)C(=O)O [N-acetyl-D-isoleucine]

percentage of the specific activity compared with that for N-acetyl-D-methionine taken as 100%, D-enantiomer (D-aminoacylase [4]): 77.5%
activity of the enzyme for the substrate (in words) (D-aminoacylase [4]): very active
amount of D-amino acids produced from the corresponding N-acetyl-D-amino acids [3]: 2.68 mM
Compound: CC(=O)N[C@H](CC(C)C)C(=O)O [N-acetyl-D-leucine]
D-amino acid produced from N-acetyl-D-amino acid [5]: 0.21 mg/mL
D-amino acid produced from N-acetyl-D-amino acid [6]: 0 mg/mL
D-amino acid produced from N-acetyl-D-amino acid [7]: 0.11 mg/mL
D-amino acid produced from N-acetyl-D-amino acid [8]: 1.05 mg/mL
D-amino acid produced from N-acetyl-D-amino acid [9]: 0 mg/mL
D-amino acid produced from N-acetyl-D-amino acid [10]: 0.10 mg/mL
D-amino acid produced from N-acetyl-D-amino acid (Fusarium solani IFO 9974): 0.14 mg/mL
D-amino acid produced from N-acetyl-D-amino acid [11]: 1.60 mg/mL
D-amino acid produced from N-acetyl-D-amino acid [12]: 0.55 mg/mL
D-amino acid produced from N-acetyl-D-amino acid [13]: 0.3 mg/mL

percentage of the specific activity compared with that for N-acetyl-D-methionine taken as 100%, D-enantiomer (D-aminoacylase [4]): 0%
Compound: CC(=O)N1CCC[C@@H]1C(=O)O [N-acetyl-D-proline]

percentage of the specific activity compared with that for N-acetyl-D-methionine taken as 100%, L-enantiomer (D-aminoacylase [4]): 0%
activity of the enzyme for the substrate (in words) (D-aminoacylase [4]): inactive
Compound: CC(=O)N[C@@H](CC(C)C)C(=O)O [N-acetyl-L-leucine]

percentage of the specific activity compared with that for N-acetyl-D-methionine taken as 100%, L-enantiomer (D-aminoacylase [4]): 0%
activity of the enzyme for the substrate (in words) (D-aminoacylase [4]): inactive
Compound: CSCC[C@H](NC(C)=O)C(=O)O [N-acetyl-L-methionine]

percentage of the specific activity compared with that for N-acetyl-D-methionine taken as 100%, L-enantiomer (D-aminoacylase [4]): 0%
activity of the enzyme for the substrate (in words) (D-aminoacylase [4]): inactive
Compound: CC(=O)N[C@@H](Cc1ccccc1)C(=O)O [N-acetyl-L-phenylalanine]

percentage of the specific activity compared with that for N-acetyl-D-methionine taken as 100%, L-enantiomer (D-aminoacylase [4]): 0%
activity of the enzyme for the substrate (in words) (D-aminoacylase [4]): inactive
Compound: CC(=O)N[C@@H](Cc1c[nH]c2ccccc12)C(=O)O [N-acetyl-L-tryptophan]

percentage of the specific activity compared with that for N-acetyl-D-methionine taken as 100%, L-enantiomer (D-aminoacylase [4]): 0%
activity of the enzyme for the substrate (in words) (D-aminoacylase [4]): inactive
Compound: CC(=O)N[C@H](C(=O)O)C(C)C [N-acetyl-L-valine]

percentage of the specific activity compared with that for N-acetyl-D-methionine taken as 100%, D-enantiomer (D-aminoacylase [4]): 0%
Compound: O=C(N[C@H](Cc1ccccc1)C(=O)O)c1ccccc1 [N-benzoyl-D-phenylalanine]

Compound: O=C(CCl)N[C@H](Cc1ccccc1)C(=O)O [N-chloroacetyl-D-phenylalanine]
percentage of the specific activity compared with that for N-acetyl-D-methionine taken as 100%, D-enantiomer (D-aminoacylase [4]): 708%
activity of the enzyme for the substrate (in words) (D-aminoacylase [4]): especially active

Relative activity (%) (D-aminoacylase [1]; [15]): 15.2%
Compound: CCN1C(=O)C=CC1=O [N-ethylmaleimide]

Compound: [Cl][Ni][Cl] [NiCl2]
Relative activity (%) (D-aminoacylase [1]): 57.7%

Compound: O=C(O)c1cc[c]([Hg][Cl])cc1 [P-Chloromercuribenzoic acid]
Relative activity (%) (D-aminoacylase [1]; compound 0.5 mM, kept at 40° C. for 30 min, residual activity, no addition = 100): 99.6%

Compound: O=S(=O)(F)Cc1ccccc1 [PMSF, phenyl methyl sulfonyl fluoride]
Relative activity (%) (D-aminoacylase [1]): 94.2%

Compound: [Cl-].[Cl-].[Zn+2] [ZnCl2]
Relative activity (%) (D-aminoacylase [1]): 26.2%

Relative activity (%) (D-aminoacylase [1]; [15]): 11.6%
Compound: O=S(=O)([O-])[O-].[Zn+2] [ZnSO4]

Compound: [Zn+2] [Zn^2+]
effect on the enzyme (in words) (D-aminoacylase [1]): inhibited

Relative activity (%) (D-aminoacylase [1]; [15]): 78.8%
Compound: c1cnc2c(c1)ccc1cccnc12 [o-Phenanthroline]

Compound: Penicillin
percentage of the specific activity compared with that for N-acetyl-D-methionine taken as 100%, D-enantiomer (D-aminoacylase [4]): 0%
